In ChEMBL document CHEMBL2203174, “SAR Development of Lysine-Based Irreversible Inhibitors of Transglutaminase 2 for Huntington's Disease” (ACS Med Chem Lett, 2012):
Peptide text beside a SMILES is read from it. * marks the point of attachment. Cbz = O=C(OCc1ccccc1)*; Acryloyl = C=CC(=O)*; OtBu = CC(C)(C)O*

Tests used:
[1] = target: T1, Protein-glutamine gamma-glutamyltransferase E (Homo sapiens, UniProt Q08188); test: Inhibition of transglutaminase 3
T1 sequence (Q08188 whole entry): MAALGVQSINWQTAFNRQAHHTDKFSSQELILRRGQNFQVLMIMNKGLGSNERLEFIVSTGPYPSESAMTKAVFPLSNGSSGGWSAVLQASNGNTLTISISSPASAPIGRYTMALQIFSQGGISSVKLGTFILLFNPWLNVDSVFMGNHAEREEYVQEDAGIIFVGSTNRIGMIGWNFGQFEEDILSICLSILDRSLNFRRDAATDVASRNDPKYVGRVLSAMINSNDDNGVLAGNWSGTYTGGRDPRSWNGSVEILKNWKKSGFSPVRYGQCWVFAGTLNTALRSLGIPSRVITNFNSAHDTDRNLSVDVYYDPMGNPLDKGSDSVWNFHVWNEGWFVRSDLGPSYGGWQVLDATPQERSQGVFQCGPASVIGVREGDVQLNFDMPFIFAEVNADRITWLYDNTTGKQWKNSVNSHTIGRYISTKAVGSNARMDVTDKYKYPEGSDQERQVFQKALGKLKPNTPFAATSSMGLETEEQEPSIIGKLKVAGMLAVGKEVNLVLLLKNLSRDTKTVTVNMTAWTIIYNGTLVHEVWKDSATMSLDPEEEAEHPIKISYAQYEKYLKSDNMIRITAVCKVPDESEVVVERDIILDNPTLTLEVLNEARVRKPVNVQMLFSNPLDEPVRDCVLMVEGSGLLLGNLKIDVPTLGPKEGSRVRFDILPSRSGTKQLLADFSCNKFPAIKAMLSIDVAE

[2] = target: T2, Protein-glutamine gamma-glutamyltransferase K (Homo sapiens, UniProt P22735); test: Inhibition of transglutaminase 1
T2 sequence (P22735 whole entry): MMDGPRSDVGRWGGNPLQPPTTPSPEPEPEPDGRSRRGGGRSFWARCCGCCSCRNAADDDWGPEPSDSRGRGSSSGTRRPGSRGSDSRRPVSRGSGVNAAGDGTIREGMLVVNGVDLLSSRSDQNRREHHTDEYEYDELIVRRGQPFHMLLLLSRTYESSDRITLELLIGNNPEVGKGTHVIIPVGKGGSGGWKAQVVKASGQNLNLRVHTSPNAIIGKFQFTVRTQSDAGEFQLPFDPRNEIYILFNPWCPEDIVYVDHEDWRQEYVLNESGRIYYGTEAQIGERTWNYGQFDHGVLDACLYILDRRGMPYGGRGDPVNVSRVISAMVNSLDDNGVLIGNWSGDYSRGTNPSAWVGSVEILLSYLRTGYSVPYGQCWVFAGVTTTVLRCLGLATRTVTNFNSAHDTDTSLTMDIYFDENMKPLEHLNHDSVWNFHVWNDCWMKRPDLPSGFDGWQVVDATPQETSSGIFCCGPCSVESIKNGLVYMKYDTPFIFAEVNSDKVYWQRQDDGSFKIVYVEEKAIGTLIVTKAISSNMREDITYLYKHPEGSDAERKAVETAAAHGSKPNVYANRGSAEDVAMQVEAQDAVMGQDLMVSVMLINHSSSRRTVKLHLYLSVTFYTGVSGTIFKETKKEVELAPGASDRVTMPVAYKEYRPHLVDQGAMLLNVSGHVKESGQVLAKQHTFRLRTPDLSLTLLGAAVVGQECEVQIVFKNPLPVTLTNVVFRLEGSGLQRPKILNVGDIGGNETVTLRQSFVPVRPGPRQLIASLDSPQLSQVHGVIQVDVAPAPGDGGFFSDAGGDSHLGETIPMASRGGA

[3] = target: T3, Coagulation factor XIII A chain (Homo sapiens, UniProt P00488); test: Inhibition of coagulation factor 13a
T3 sequence (P00488 whole entry): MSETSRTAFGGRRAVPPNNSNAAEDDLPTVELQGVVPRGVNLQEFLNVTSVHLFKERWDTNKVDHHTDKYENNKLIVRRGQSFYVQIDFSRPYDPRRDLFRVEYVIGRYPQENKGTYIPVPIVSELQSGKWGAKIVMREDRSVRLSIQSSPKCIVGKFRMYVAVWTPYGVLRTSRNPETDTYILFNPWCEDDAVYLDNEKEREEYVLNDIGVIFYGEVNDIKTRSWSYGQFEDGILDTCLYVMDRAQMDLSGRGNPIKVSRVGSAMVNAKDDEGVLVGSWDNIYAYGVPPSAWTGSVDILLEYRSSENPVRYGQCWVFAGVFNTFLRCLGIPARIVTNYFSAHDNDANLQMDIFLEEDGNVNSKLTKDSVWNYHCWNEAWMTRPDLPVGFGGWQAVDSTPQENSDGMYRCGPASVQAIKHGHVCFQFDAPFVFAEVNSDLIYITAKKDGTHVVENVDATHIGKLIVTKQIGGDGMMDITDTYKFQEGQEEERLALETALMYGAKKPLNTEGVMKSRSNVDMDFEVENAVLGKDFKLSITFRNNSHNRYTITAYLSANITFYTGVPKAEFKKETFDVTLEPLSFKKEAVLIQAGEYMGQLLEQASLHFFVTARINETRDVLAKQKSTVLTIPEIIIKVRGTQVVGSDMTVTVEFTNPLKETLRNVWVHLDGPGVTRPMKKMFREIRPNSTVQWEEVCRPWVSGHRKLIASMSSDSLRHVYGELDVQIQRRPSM

[4] = target: T4, Protein-glutamine gamma-glutamyltransferase (Homo sapiens, UniProt P21980); test: Irreversible inhibition of transglutaminase 2
T4 sequence (P21980 whole entry): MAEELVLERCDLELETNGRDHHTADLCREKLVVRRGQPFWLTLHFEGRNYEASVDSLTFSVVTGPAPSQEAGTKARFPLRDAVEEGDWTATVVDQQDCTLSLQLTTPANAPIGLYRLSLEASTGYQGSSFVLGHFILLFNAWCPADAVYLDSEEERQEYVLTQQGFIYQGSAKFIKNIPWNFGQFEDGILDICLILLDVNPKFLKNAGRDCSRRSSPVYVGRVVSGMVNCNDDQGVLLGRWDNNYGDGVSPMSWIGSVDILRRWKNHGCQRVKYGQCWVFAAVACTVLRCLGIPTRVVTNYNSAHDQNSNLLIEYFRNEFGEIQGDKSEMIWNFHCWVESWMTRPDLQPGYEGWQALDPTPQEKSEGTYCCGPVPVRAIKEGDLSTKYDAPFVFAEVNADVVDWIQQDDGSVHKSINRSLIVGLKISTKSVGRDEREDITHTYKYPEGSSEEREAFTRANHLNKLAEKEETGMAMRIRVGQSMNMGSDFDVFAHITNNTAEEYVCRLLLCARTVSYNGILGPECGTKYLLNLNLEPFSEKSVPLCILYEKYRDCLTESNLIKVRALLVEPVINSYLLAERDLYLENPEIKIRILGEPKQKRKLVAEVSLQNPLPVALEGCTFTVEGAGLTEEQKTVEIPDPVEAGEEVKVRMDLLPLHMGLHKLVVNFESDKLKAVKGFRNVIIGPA

C=CC(=O)NCCCC[C@H](NC(=O)OCc1ccccc1)C(=O)N1CCN(c2ccccc2Cl)CC1
IC50 [1]: > 80 µM | IC50 [2]: 12.9 µM | IC50 [3]: 67 µM | IC50 [4]: 0.062 µM

C=CC(=O)NCCCC[C@H](NC(=O)OCc1ccccc1)C(=O)NCC(=O)OC(C)(C)C (Cbz-Lys(Acryloyl)-Gly-OtBu)
IC50 [1]: > 80 µM | IC50 [2]: > 80 µM | IC50 [3]: > 80 µM | IC50 [4]: 3.1 µM

C=CC(=O)NCCCC[C@H](NC(=O)Cc1ccccc1)C(=O)N1CCN(c2cccc(C)n2)CC1
IC50 [1]: > 80 µM | IC50 [2]: 15 µM | IC50 [3]: 35 µM | IC50 [4]: 0.014 µM
